Measurements from patent US20070082880A1 (priority 2005, published 2007).
Structures can show the parent of a compound that is named as a salt.

Columns and labels:
[1] = target: PKCθ (Homo sapiens, UniProt Q04759); assay: PKCθ Scintiplate Assay; format: biochemical; details: average value when one or more samples were tested
Procedure: This assay detects the phosphorylation of a biotinylated substrate by kinase utilizing radiolabeled ATP (ATP γ P33). The enzyme is either recombinant full length PKCθ (Panvera, P2996) or the purified recombinant active kinase domain of full length PKCθ (amino acids 362-706). The substrate in this assay is a biotinylated peptide with a sequence of biotin-[…]-CONH2. The assay buffer is composed of 100 mM Hepes, pH7.5, 2 mM MgCl2, 20 mM β-glycerophosphate and 0.008% TritonX 100. A reaction mixture of ATP, ATP γ P33 (PerkinElmer), DTT, lipid activator, and the enzyme is prepared in the assay buffer and added to a 96 well polypropylene plate. The compound (diluted in DMSO in a separate 96-well polypropylene plate) is added to the reaction mixture and incubated at room temperature. Following the incubation, the peptide substrate is added to the reaction mixture to initiate the enzymatic reaction. The reaction is terminated with the addition of a stop solution (10 mM EDTA, 0.2% TritonX100, and 100 mM NaHPO4) and transferred from the assay plate to a washed streptavidin-coated 96 well scintiplate (PerkinElmer). The scintiplate is incubated at room temperature, washed in PBS with 0.1% TritonX 100, and counted in the 1450 Microbeta Trilux (Wallac, Version 2.60). Counts are recorded for each well as corrected counts per minute (CCPM). The counts are considered corrected because they are adjusted according to a P33 normalization protocol, which corrects for efficiency and background differences between the instrument detectors (software version 4.40.01).

[2] = target: T1, human PKCθ full length enzyme (Homo sapiens, UniProt Q04759); assay: PKCθ IMAP Assay; format: biochemical; details: average value when one or more samples were tested; ATP 6 uM, PKCθ 1 nM
T1 construct: human PKCθ full length enzyme (Panvera Catalog No. P2996); purchased Panvera P2996
T1 sequence (Q04759 whole entry): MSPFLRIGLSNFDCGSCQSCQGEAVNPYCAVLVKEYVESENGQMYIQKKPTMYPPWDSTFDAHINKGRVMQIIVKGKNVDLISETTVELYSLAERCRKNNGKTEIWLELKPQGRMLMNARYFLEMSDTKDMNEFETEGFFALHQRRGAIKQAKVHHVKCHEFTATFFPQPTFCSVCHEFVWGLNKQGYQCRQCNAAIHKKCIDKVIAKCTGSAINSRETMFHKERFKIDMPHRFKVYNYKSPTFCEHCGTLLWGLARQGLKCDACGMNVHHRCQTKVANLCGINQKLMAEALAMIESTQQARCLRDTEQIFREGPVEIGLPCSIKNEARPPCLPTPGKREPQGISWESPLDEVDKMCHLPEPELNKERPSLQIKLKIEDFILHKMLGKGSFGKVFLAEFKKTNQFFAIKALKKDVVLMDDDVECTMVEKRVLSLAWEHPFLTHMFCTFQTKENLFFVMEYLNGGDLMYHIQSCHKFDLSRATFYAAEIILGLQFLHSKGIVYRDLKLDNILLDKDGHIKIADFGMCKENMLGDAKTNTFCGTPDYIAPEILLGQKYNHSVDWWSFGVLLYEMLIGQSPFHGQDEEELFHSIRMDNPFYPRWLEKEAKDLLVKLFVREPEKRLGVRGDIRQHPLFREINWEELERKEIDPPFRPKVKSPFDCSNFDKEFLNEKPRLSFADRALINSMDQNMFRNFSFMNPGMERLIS
Method in brief: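 Full-length human PKCθ (1 nM final) with 6 uM ATP and 100 nM 5FAM-labelled peptide, 5% DMSO, 3.0 mM DTT in reaction buffer. 25 min at room temperature; IMAP bead binding 20 min, fluorescence polarization read. Compounds 2:1 serially diluted; no-ATP and no-enzyme wells as controls.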

PKCθ, sequence (Q04759 362-706 limits assumed): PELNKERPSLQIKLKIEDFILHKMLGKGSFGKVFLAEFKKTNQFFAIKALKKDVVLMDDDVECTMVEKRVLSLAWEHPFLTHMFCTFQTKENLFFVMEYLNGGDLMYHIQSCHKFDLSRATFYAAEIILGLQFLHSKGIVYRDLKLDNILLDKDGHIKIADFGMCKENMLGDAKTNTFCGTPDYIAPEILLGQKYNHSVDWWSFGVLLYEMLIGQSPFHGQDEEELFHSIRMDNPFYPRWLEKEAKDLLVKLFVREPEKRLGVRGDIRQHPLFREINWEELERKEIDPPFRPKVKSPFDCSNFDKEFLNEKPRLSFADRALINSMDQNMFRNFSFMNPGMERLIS

| Compound | IC50 [1] | IC50 [2] | melting point |
| --- | --- | --- | --- |
| CN1CCN(Cc2ccc(-c3cc4c(Nc5ccc6[nH]ccc6c5)c(C#N)cnc4s3)cc2)CC1 [Compound 104, 4-(1H-indol-5-ylamino)-2-{4-[(4-methylpiperazin-1-yl)methyl]phenyl}thieno[2,3-b]pyridine-5-carbonitrile] | 280 nM |  |  |
| CN(C)Cc1ccc(-c2cc3c(Nc4ccc5[nH]ccc5c4)c(C#N)cnc3s2)cc1 [Compound 105, 2-{4-[(dimethylamino)methyl]phenyl}-4-(1H-indol-5-ylamino)thieno[2,3-b]pyridine-5-carbonitrile] | 77 nM |  |  |
| N#Cc1cnc2sc(-c3ccc(CNCCO)cc3)cc2c1Nc1ccc2[nH]ccc2c1 [Compound 106, 2-(4-{[(2-hydroxyethyl)amino]methyl}phenyl)-4-(1H-indol-5-ylamino)thieno[2,3-b]pyridine-5-carbonitrile] | 80 nM | 140 nM |  |
| N#Cc1cnc2sc(-c3ccccc3)cc2c1Nc1ccc2cc[nH]c2c1 [Compound 116, 4-(1H-indol-6-ylamino)-2-phenylthieno[2,3-b] pyridine-5-carbonitrile hydrochloride] | > 3300 nM | 5600 nM |  |
| Cc1c(Nc2c(C#N)cnc3sc(-c4ccccc4)cc23)ccc2[nH]ccc12 [Compound 117, 4-[(4-methyl-1H-indol-5-yl)amino]-2-phenylthieno[2,3-b]pyridine-5-carbonitrile] | 28 nM | 60 nM |  |
| Cc1cc2cc(Nc3c(C#N)cnc4sc(-c5ccccc5)cc34)ccc2[nH]1 [Compound 118, 4-[(2-methyl-1H-indol-5-yl)amino]-2-phenylthieno[2,3-b]pyridine-5-carbonitrile] | 2700 nM | 1900 nM |  |
| N#Cc1cnc2sc(-c3ccccc3)cc2c1Nc1ccc2[nH]cnc2c1 [Compound 119, 4-(1H-benzimidazol-5-ylamino)-2-phenylthieno[2,3-b]pyridine-5-carbonitrile] | 9100 nM |  |  |
| Cc1cc(Nc2c(C#N)cnc3sc(-c4ccccc4)cc23)cc2cc[nH]c12 [Compound 120, 4-[(7-methyl-1H-indol-5-yl)amino]-2-phenylthieno[2,3-b]pyridine-5-carbonitrile] | 120000 nM |  |  |
| N#Cc1cnc2sc(-c3ccccc3)cc2c1NCc1cccc2[nH]ccc12 [Compound 125, 4-(1H-indol-4-ylmethylamino)-2-phenylthieno[2,3-b]pyridine-5-carbonitrile] | > 30000 nM |  |  |
| CN1CCN(Cc2ccc(-c3cc4c(NCCc5c[nH]cn5)c(C#N)cnc4s3)cc2)CC1 [Compound 128, 4-{[2-(1H-imidazol-4-yl)ethyl]amino}-2-{4-[(4-methylpiperazin-1-yl)methyl]phenyl}thieno[2,3-b]pyridine-5-carbonitrile] | 7300 nM |  |  |
| N#Cc1cnc2sc(-c3ccccc3)cc2c1NC(=O)c1ccc2[nH]ccc2c1 [Compound 129, N-(5-cyano-2-phenylthieno[2,3-b]pyridin-4-yl)-1H-indole-5-carboxamide] | > 60000 nM | > 100000 nM |  |
| Cc1c[nH]c2ccc(Nc3c(C#N)cnc4sc(-c5ccccc5)cc34)cc12 [Compound 133, 4-[(3-methyl-1H-indol-5-yl)amino]-2-phenylthieno[2,3-b]pyridine-5-carbonitrile] | 800 nM | 1400 nM |  |
| Cn1ccc2cc(Nc3c(C#N)cnc4sc(-c5ccccc5)cc34)ccc21 [Compound 134, 4-[(1-methyl-1H-indol-5-yl)amino]-2-phenylthieno[2,3-b]pyridine-5-carbonitrile] | > 200000 nM |  |  |
| N#Cc1cnc2sc(-c3ccc(CN4CCOCC4)cc3)cc2c1Nc1cccc2[nH]ccc12 [Compound 138, 4-(1H-indol-4-ylamino)-2-[4-(morpholin-4-ylmethyl)phenyl]thieno[2,3-b]pyridine-5-carbonitrile] | 190 nM |  |  |
| CN(C)Cc1cccc(-c2cc3c(Nc4cccc5[nH]ccc45)c(C#N)cnc3s2)c1 [Compound 141, 2-{3-[(dimethylamino)methyl]phenyl}-4-(1H-indol-4-ylamino)thieno[2,3-b]pyridine-5-carbonitrile] | 41 nM | 40 nM |  |
| CN1CCN(Cc2ccccc2-c2cc3c(Nc4cccc5[nH]ccc45)c(C#N)cnc3s2)CC1 [Compound 143, 4-(1H-indol-4-ylamino)-2-{2-[(4-methylpiperazin-1-yl)methyl]phenyl}thieno[2,3-b]pyridine-5-carbonitrile] | 180 nM | 240 nM |  |
| CN1CCN(Cc2cccc(-c3cc4c(Nc5ccc6[nH]ccc6c5)c(C#N)cnc4s3)c2)CC1 [Compound 145, 4-(1H-indol-5-ylamino)-2-{3-[(4-methylpiperazin-1-yl)methyl]phenyl}thieno[2,3-b]pyridine-5-carbonitrile] | 90 nM |  |  |
| N#Cc1cnc2sc(-c3cccc(CN4CCN(CCc5ccccc5)CC4)c3)cc2c1Nc1ccc2[nH]ccc2c1 [Compound 152, 4-(1H-indol-5-ylamino)-2-(3-{[4-(2-phenylethyl)piperazin-1-yl]methyl}phenyl)thieno[2,3-b]pyridine-5-carbonitrile] | 310 nM |  |  |
| N#Cc1cnc2sc(-c3ccc(N4CCOCC4)cc3)cc2c1Nc1ccc2[nH]ccc2c1 [Compound 189, 4-(1H-indol-5-ylamino)-2-(4-morpholin-4-ylphenyl)thieno[2,3-b]pyridine-5-carbonitrile] | 2100 nM |  |  |

Other lines, results leading:

| IC50 [1] | IC50 [2] | melting point | Compound |
| --- | --- | --- | --- |
| 190 nM |  |  | CCN1CCN(CC/C=C/c2cc3c(Nc4ccc5[nH]ccc5c4)c(C#N)cnc3s2)CC1 [Compound 190, 2-[(1E)-4-(4-ethylpiperazin-1-yl)but-1-en-1-yl]-4-(1H-indol-5-ylamino)thieno[2,3-b]pyridine-5-carbonitrile] |
| 45 nM |  |  | CN(C)CCc1ccc(-c2cc3c(Nc4ccc5[nH]ccc5c4)c(C#N)cnc3s2)cc1 [Compound 192, 2-{4-[2-(dimethylamino)ethyl]phenyl}-4-(1H-indol-5-ylamino)thieno[2,3-b] pyridine-5-carbonitrile] |
| 180 nM |  |  | Cn1cncc1-c1cc2c(Nc3ccc4[nH]ccc4c3)c(C#N)cnc2s1 [Compound 205, 4-(1H-indol-5-ylamino)-2-(1-methyl-1H-imidazol-5-yl)thieno[2,3-b]pyridine-5-carbonitrile] |
| 580 nM |  |  | CN1CCN(Cc2ncc(-c3cc4c(Nc5ccc6[nH]ccc6c5)c(C#N)cnc4s3)n2C)CC1 [Compound 210] |
| 500 nM |  |  | N#Cc1cnc2sc(C#Cc3ccccc3)cc2c1Nc1ccc2[nH]ccc2c1 [Compound 215, 4-(1H-indol-5-ylamino)-2-(phenylethynyl)thieno[2,3-b]pyridine-5-carbonitrile] |
|  | 31 nM | 228 °C | Cc1c(Nc2c(C#N)cnc3sc(C4=CCN(S(C)(=O)=O)CC4)cc23)ccc2[nH]ccc12 [Compound 475, 4-[(4-methyl-1H-indol-5-yl)amino]-2-[1-(methylsulfonyl)-1,2,3,6-tetrahydropyridin-4-yl]thieno[2,3-b]pyridine-5-carbonitrile] |
|  | 41 nM | 230 °C | Cc1c(Nc2c(C#N)cnc3sc(C4=CCN(C)CC4)cc23)ccc2[nH]ccc12 [Compound 477, 4-[(4-Methyl-1H-indol-5-yl)amino]-2-(1-methyl-1,2,3,6-tetrahydropyridin-4-yl)thieno[2,3-b]pyridine-5-carbonitrile] |
|  | 67 nM | 255 °C | Cc1c(Nc2c(C#N)cnc3sccc23)ccc2[nH]ccc12 [Compound 480, 4-[(4-methyl-1H-indol-5-yl)amino]thieno[2,3-b]pyridine-5-carbonitrile] |
|  | 46 nM | 261 °C | Cc1c(Nc2c(C#N)cnc3scc(C)c23)ccc2[nH]ccc12 [Compound 481, 3-Methyl-4-[(4-methyl-1H-indol-5-yl)amino]thieno[2,3-b]pyridine-5-carbonitrile] |
|  | 23 nM | 182 to 184 °C | Cc1c(Nc2c(C#N)cnc3sc(-c4ccc(OCCN(C)C)cc4)cc23)ccc2[nH]ccc12 [Compound 494, 2-{4-[2-(dimethylamino)ethoxy]phenyl}-4-[(4-methyl-1H-indol-5-yl)amino]thieno[2,3-b]pyridine-5-carbonitrile] |
|  | 395 nM | 228 °C | N#Cc1cnc2sc(Cl)cc2c1Nc1ccc2[nH]ccc2c1 [Compound 495, 2-chloro-4-(1H-indol-5-ylamino)thieno[2,3-b]pyridine-5-carbonitrile] |
|  | 63 nM | 230 °C | Cc1c(Nc2c(C#N)cnc3scc(CO)c23)ccc2[nH]ccc12 [Compound 496, 3-(Hydroxymethyl)-4-[(4-methyl-1H-indol-5-yl)amino]thieno[2,3-b]pyridine-5-carbonitrile] |
|  | 16800 nM | > 245 °C | N#Cc1c[n+]([O-])c2sc(-c3ccccc3)cc2c1Nc1ccc2[nH]ccc2c1 [Compound 500, 4-(1H-indol-5-ylamino)-2-phenylthieno[2,3-b]pyridine-5-carbonitrile 7-oxide] |
